The target in one assay is T1, CYP2D6 (Homo sapiens, UniProt P10635).
T1 construct: 0.2 mg/ml pooled human liver microsomes; from tissue; host or cells: pooled human liver microsomes
As to the kind of experiment: CYP inhibition assay, human liver microsomes, dextromethorphan. It counts as in vitro ADME. Particulars: read-out: CYP IC50 2D6. How it is done:
(§1) Inhibition of cytochromes P450 (CYPs) 2C9, 2D6 and 3A4 was assessed using human liver microsomes and CYP-selective substrate metabolism reactions. 50 μl incubations were made up containing (finally) 0.2 mg/ml pooled human liver microsomes, 5 μM substrate (diclofenac for CYP2C9 [4′hydroxylase], dextromethorphan for CYP2D6 [O-demethylase] or midazolam for CYP3A4 [1′hydroxylase]), 0.25 μL DMSO containing test inhibitor and NADPH regenerating system. Test inhibitor concentrations of 50, 16.7, 5.6, 1.9, 0.6 and 0.2 μM were assessed in singlicate. Incubations were prewarmed to 37° C. for 10 minutes before initiation by addition of NADPH regenerating system. Incubations were quenched after 5 minutes (20 minutes for dextromethorphan) by addition of 50 μl cold acetonitrile containing 20 ng/ml 4-OH-diclofenac-13C6, 20 ng/mL dextrorphan-D3 and 20 ng/mL 1-OH-midazolam-D4. Quenched incubates were stored at −20° C. for at least 1 hour before centrifugation (20,000×g, 20 minutes). Supernatants were removed and diluted 1:1 with water prior to analysis using a RapidFire sample injector system and API4000 mass spectrometer. Peak areas for substrate, metabolite and stable-labelled metabolite standard were determined using MS/MS. The peak area ratios between the metabolite generated by the enzymatic reaction and the internal standard were used in subsequent calculations. The percentage of (DMSO) control activity was calculated for each incubate and IC50 values estimated by non-linear regression. Sulfaphenazole, quinidine or ketoconazole were tested in each CYP2C9, CYP2D6 or CYP3A4 inhibition experiment, respectively, to ensure assay sensitivity and reproducibility. (Validated assays for human cytochrome P450 activities^11)
In general terms: Liver microsomes are a subcellular fraction often used to study metabolism.

The target in assay [1] is T2, recombinant human cathepsin E (Homo sapiens, UniProt P14091).
T2 construct: purchased R&D Systems
T2 sequence (P14091 54-396): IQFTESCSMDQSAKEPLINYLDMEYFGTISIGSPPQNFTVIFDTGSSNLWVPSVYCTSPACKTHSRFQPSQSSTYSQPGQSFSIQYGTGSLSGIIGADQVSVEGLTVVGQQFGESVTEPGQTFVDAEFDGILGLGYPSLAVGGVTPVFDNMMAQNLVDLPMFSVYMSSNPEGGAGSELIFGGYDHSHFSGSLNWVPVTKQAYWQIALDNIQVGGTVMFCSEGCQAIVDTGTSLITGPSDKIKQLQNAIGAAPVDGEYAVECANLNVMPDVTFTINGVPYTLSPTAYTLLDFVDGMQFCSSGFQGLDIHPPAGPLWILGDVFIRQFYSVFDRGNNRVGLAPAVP
In words: Cathepsin E fluorescent substrate kinetic assay. The settings on record: pH 4.5. It counts as biochemical. An excerpt: (§2) The MR121 fluorescence assays described below are based on the fact that MR121 forms a non-fluorescent ground state complex with tryptophan. In solution this formation occurs at millimolar concentrations of tryptophan. The mechanism can be used to design a generic biochemical assay for proteases. A substrate peptide is labeled at the N-terminus with tryptophan and at the C-terminus with the fluorophore MR121 (for cathepsin D the 10 amino acid peptide WTSVLMAAPC-MR121 was used; for cathepsin E, MR121-CKLVFFAEDW was used). In absence of protease activity, the substrates remain intact and the MR121 fluorescence is reduced by the high local Trp-concentration. If the substrates are cleaved by the enzymes the MR121 fluorescence is recovered.
(§3) The fluorescent substrate cathepsin D and cathepsin E kinetic assays were performed at room temperature in 384-well microtiter plates (black with clear flat bottom, non binding surface plates from Corning) in a final volume of 51 μl. The test compounds were serially diluted in DMSO (15 concentrations, 1/3 dilution steps) and 1 μl of diluted compounds were mixed for 10 min with 40 μl of cathepsin D (from human liver, Calbiochem) diluted in assay buffer (100 mM sodium acetate, 0.05% BSA, pH 5.5; final concentration: 200 nM) or with 40 μl of recombinant human cathepsin E (R&D Systems) diluted in assay buffer (100 mM sodium acetate, 0.05% BSA, pH 4.5; final concentration: 0.01 nM). After addition of 10 μl of the cathepsin D substrate WTSVLMAAPC-MR121 diluted in cathepsin D assay buffer (final concentration: 300 nM) or […] cathepsin E substrate MR121-CKLVFFAEDW diluted in cathepsin E assay buffer (final concentration: 300 nM), the plates were strongly shaken for 2 minutes. The enzymatic reaction was followed in a plate: vision reader (Perkin Elmer) (excitation wavelength: 630 nm; emission: 695 nm) for at least 30 minutes in a kinetic measurement detecting an increase of MR121 fluorescence during the reaction time. The slope in the linear range of the kinetic was calculated and the IC50 of the test compounds were determined using a four parameter equation for curve fitting.

Another assay is described as follows: in vivo effect. The settings on record: @ 30 mg/kg p.o.
In another assay the target is T3, CYP3A4 (Homo sapiens, UniProt P08684).
T3 construct: 0.2 mg/ml pooled human liver microsomes; from tissue; host or cells: pooled human liver microsomes
As to the kind of experiment: CYP inhibition assay, human liver microsomes, midazolam. The format is in vitro ADME. Particulars: read-out: CYP IC50 3A4. How it is done:
as §1

In another assay the target is T4, CYP2C9 (Homo sapiens, UniProt P11712).
T4 construct: 0.2 mg/ml pooled human liver microsomes; from tissue; host or cells: pooled human liver microsomes
As to the kind of experiment: CYP inhibition assay, human liver microsomes, diclofenac. It counts as in vitro ADME. The settings on record: read-out: CYP IC50 2C9. How it is done:
as §1

The target of assay [2] is T5, cathepsin D (from human liver) (Homo sapiens, UniProt P07339).
T5 construct: cathepsin D (from human liver, Calbiochem); purchased Calbiochem; host or cells: human liver (tissue-purified)
As to the kind of experiment: Cathepsin D fluorescent substrate kinetic assay. It counts as biochemical. Particulars: pH 5.5.
Source text: as §2, §3

T1 sequence (P10635 whole entry): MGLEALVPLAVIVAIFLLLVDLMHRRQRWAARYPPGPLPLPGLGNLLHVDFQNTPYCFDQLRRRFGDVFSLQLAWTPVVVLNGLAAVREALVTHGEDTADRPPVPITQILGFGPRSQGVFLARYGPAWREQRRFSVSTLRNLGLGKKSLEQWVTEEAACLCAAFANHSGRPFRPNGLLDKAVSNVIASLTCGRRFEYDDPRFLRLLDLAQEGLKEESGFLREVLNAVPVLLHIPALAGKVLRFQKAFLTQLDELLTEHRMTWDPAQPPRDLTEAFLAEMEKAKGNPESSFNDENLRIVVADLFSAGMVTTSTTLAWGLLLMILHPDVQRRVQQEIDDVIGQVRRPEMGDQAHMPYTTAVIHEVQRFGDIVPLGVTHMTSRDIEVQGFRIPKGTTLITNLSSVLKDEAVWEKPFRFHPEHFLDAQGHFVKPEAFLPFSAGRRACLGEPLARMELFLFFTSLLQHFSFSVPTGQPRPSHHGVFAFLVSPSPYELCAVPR
T4 sequence (P11712 whole entry): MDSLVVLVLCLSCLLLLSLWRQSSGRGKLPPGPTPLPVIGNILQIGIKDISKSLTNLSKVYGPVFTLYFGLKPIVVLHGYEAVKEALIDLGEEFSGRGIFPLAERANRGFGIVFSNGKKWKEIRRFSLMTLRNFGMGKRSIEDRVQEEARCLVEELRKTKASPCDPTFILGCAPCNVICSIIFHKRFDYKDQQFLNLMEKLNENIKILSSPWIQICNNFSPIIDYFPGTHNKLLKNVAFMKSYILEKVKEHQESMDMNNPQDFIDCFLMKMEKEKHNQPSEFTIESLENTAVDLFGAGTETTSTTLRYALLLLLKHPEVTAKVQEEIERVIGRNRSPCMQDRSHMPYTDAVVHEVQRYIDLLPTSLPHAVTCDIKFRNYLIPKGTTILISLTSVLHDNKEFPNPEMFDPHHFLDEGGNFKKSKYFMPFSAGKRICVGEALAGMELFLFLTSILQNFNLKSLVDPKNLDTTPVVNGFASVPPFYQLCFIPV
T3 sequence (P08684 whole entry): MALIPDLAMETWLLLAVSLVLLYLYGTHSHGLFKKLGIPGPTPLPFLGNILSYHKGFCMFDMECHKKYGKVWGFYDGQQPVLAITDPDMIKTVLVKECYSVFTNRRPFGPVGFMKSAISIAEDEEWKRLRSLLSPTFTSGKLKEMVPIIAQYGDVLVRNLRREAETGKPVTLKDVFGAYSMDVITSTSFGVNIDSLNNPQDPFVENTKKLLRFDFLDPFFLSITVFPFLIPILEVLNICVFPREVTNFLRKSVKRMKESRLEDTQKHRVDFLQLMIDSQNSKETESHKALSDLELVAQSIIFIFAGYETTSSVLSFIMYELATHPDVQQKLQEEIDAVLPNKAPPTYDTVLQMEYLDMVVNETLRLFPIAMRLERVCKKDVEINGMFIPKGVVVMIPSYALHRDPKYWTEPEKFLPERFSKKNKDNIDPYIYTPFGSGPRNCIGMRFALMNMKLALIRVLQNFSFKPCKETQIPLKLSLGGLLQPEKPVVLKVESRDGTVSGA
T5 sequence (P07339 65-162 limits assumed): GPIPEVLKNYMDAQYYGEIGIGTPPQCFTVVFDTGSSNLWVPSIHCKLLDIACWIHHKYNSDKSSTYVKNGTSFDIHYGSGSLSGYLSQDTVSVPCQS
T5 sequence (P07339 169-412 limits assumed): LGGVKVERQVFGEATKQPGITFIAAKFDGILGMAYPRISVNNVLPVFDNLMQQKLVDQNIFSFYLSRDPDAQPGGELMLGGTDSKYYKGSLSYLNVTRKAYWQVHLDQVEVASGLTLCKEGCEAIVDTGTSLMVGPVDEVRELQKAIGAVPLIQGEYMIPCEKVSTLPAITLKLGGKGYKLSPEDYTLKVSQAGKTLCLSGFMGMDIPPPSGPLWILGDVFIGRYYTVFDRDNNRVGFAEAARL

As usually defined, the IC50 is the concentration at which inhibition is half-maximal. Regarding `CC#CCOc1cnc(C(=O)Nc2ccc(F)c([C@@]3(C)N=C(N)O[C@@H]4CCC(F)(F)[C@@H]43)c2)cn1` [Example 1, 5-But-2-ynyloxy-pyrazine-2-carboxylic acid [3-((4S,4aR,7aR)-2-amino-5,5-difluoro-4-methyl-4,4a,5,6,7,7a-hexahydro-cyclopenta[e][1,3]oxazin-4-yl)-4-fluoro-phenyl]-amide], the IC50 on CYP2D6 was 1 to 10 µM; in assay [1], 97 µM; on CYP3A4 it was more than 10 µM; at CYP2C9, more than 10 µM; in assay [2] it was 135 µM. Besides, in “in vivo effect”, the “in vivo effect (% of control)” value is “A (A = less than 50% of control @ 30 mg/kg p.o.)”.

As to `C[C@]1(c2cc(NC(=O)c3ccc(C#N)cn3)ccc2F)N=C(N)O[C@@H]2CCC(F)(F)[C@@H]21` [Example 2, 5-Cyano-pyridine-2-carboxylic acid [3-((4S,4aR,7aR)-2-amino-5,5-difluoro-4-methyl-4,4a,5,6,7,7a-hexahydro-cyclopenta[e][1,3]oxazin-4-yl)-4-fluoro-phenyl]-amide], the IC50 on CYP2D6 was more than 10 µM; in assay [1], 90 µM; on CYP3A4 it was more than 10 µM; on CYP2C9 it was more than 10 µM; in assay [2] it was more than 200 µM. The “in vivo effect (% of control)” value in the assay “in vivo effect” is listed as “A (A = less than 50% of control @ 30 mg/kg p.o.)”.

On to `C[C@]1(c2cc(NC(=O)c3ccc(C#N)cn3)ccc2F)N=C(N)O[C@@H]2CCCC(F)(F)[C@@H]21` [Example 8, 5-Cyano-pyridine-2-carboxylic acid [3-((4S,4aR,8aR)-2-amino-5,5-difluoro-4-methyl-4a,5,6,7,8,8a-hexahydro-4H-benzo[e][1,3]oxazin-4-yl)-4-fluoro-phenyl]-amide], for which the 50% inhibitory concentration (IC50) at CYP2D6 is more than 10 µM; in assay [1], more than 200 µM; at CYP3A4, more than 10 µM; at CYP2C9 it was more than 10 µM; in assay [2], more than 200 µM. In addition, in “in vivo effect”, the “in vivo effect (% of control)” value is recorded as “A (A = less than 50% of control @ 30 mg/kg p.o.)”.

These data come from patent US9181232B2, “Difluoro-hexahydro-cyclopentaoxazinyls and difluoro-hexahydro-benzooxazinyls as BACE1 inhibitors” (Hoffmann-La Roche Inc., priority 2012, dated 2015).
